Assay results: ChEMBL document CHEMBL5465560, “Selectivity Literature for EUbOPEN Chemogenomic Library” (2024)

Legend:
[1] = target: Serine/threonine-protein kinase SIK2 (Homo sapiens) (UniProt Q9H0K1); assay: Selectivity interaction (KinomeScan (DiscoverX)) EUB0000229b SIK2; conditions: at 10 µM
EML4-ALK (Homo sapiens) = EML4-ALK (Homo sapiens) (UniProt Q9UM73+Q9HC35); assay: (§1) Selectivity interaction (ProQinase) EUB0000171b ALK; format: protein assay
[2] = tested on: EML4-ALK (Homo sapiens), Q9UM73+Q9HC35 [UNDEFINED MUTATION]; assay: as §1; format: protein assay; conditions: at 5 µM
[3] = tested on: NPM/ALK (Nucleophosmin/ALK tyrosine kinase receptor) (Homo sapiens), Q9UM73+P06748 [F1174L]; assay: as §1; format: protein assay
[4] = target: T1, Serine/threonine-protein kinase Nek1 (Homo sapiens) (UniProt Q96PY6); assay: Selectivity interaction (KinomeScan (DiscoverX)) EUB0001079a NEK1; conditions: at 1 µM
T1 sequence (whole entry): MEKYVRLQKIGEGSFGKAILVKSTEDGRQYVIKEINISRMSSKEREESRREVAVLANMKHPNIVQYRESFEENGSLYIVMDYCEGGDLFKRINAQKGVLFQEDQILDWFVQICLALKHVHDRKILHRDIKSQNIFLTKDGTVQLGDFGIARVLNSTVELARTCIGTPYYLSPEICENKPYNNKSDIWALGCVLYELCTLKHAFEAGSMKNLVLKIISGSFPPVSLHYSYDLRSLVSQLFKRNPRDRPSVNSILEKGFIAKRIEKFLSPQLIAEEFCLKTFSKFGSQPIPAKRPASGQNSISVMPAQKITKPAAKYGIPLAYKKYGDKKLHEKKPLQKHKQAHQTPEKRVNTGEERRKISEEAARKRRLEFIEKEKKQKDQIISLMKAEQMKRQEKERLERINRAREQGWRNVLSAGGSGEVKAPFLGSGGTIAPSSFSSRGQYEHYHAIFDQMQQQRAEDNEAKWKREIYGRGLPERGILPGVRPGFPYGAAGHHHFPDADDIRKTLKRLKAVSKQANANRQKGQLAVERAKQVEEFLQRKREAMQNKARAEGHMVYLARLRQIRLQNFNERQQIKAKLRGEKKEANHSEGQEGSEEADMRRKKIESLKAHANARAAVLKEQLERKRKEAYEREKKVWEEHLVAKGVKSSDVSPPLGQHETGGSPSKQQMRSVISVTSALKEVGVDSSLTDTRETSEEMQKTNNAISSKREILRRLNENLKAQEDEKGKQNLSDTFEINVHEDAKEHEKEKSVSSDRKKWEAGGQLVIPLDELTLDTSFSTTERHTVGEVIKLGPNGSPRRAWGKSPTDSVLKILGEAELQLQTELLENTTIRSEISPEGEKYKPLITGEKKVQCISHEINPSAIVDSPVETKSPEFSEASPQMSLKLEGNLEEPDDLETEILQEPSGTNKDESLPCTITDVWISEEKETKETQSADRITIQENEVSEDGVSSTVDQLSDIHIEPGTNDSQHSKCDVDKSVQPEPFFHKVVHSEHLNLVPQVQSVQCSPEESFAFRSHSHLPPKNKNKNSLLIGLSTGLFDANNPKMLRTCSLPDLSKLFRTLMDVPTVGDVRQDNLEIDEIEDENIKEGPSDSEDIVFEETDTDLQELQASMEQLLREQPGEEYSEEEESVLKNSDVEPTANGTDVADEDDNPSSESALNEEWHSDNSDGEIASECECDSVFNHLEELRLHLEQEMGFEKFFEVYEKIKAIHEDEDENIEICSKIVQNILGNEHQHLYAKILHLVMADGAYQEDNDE

[5] = target: Histone acetyltransferase KAT2A (Homo sapiens) (UniProt Q92830); assay: Selectivity interaction (Human bromodomain panel (DSF assay)) EUB0000233b KAT2A
[6] = target: Serine/threonine-protein kinase 10 (Homo sapiens) (UniProt O94804); assay: Selectivity interaction (ActivX KiNativ screen (kinase selectivity in THP-1 cell lysates)) EUB0000639a STK10; format: subcellular; conditions: lysate, at 0.04 µM
[7] = target: T2, Mitogen-activated protein kinase kinase kinase 12 (Homo sapiens) (UniProt Q12852); assay: Selectivity interaction (KinomeScan (DiscoverX)) EUB0000618a MAP3K12; conditions: at 10 µM
T2 sequence (whole entry): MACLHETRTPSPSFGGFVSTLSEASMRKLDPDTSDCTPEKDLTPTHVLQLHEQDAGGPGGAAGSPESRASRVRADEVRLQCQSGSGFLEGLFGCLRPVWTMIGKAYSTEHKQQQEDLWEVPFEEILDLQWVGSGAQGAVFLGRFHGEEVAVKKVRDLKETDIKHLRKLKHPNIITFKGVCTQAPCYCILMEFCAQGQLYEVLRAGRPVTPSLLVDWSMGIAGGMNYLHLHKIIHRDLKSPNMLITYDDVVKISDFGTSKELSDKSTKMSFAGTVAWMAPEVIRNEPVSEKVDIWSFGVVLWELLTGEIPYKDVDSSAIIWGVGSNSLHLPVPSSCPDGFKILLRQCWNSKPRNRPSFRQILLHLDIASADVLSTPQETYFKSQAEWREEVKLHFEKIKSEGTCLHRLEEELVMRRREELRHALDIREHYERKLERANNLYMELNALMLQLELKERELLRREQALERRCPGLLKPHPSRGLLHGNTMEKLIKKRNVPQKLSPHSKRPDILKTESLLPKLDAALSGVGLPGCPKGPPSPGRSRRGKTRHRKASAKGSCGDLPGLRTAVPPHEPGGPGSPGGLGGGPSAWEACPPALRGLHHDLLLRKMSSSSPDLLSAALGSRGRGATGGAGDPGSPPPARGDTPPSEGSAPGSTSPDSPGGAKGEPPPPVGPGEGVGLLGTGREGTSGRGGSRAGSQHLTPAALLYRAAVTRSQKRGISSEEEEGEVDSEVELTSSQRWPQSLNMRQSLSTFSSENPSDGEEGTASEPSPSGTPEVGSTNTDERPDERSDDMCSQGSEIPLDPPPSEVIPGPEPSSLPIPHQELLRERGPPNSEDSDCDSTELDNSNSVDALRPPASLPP

[8] = target: Serine/threonine-protein kinase 32B (Homo sapiens) (UniProt Q9NY57); assay: Selectivity interaction (Ambit KINOMEscan and KiNATiv profiling in Jurkat cells) EUB0000090b STK32B; format: cell-based; conditions: at 1 µM
Serine/threonine-protein kinase 32B (Homo sapiens), sequence (Q9NY57 whole entry): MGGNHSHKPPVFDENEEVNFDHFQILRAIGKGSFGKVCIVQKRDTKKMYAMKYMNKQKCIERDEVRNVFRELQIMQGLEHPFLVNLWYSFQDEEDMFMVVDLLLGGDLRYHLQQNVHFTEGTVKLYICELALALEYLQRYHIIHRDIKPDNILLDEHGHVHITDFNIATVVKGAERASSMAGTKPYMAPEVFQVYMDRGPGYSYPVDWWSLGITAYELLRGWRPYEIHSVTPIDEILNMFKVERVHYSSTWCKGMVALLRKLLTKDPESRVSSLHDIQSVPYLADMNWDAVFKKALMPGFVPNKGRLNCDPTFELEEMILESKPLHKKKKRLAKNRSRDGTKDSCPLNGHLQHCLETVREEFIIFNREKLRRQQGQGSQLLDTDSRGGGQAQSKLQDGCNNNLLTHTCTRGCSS

EML4-ALK (Homo sapiens), sequence (Q9HC35 whole entry partner): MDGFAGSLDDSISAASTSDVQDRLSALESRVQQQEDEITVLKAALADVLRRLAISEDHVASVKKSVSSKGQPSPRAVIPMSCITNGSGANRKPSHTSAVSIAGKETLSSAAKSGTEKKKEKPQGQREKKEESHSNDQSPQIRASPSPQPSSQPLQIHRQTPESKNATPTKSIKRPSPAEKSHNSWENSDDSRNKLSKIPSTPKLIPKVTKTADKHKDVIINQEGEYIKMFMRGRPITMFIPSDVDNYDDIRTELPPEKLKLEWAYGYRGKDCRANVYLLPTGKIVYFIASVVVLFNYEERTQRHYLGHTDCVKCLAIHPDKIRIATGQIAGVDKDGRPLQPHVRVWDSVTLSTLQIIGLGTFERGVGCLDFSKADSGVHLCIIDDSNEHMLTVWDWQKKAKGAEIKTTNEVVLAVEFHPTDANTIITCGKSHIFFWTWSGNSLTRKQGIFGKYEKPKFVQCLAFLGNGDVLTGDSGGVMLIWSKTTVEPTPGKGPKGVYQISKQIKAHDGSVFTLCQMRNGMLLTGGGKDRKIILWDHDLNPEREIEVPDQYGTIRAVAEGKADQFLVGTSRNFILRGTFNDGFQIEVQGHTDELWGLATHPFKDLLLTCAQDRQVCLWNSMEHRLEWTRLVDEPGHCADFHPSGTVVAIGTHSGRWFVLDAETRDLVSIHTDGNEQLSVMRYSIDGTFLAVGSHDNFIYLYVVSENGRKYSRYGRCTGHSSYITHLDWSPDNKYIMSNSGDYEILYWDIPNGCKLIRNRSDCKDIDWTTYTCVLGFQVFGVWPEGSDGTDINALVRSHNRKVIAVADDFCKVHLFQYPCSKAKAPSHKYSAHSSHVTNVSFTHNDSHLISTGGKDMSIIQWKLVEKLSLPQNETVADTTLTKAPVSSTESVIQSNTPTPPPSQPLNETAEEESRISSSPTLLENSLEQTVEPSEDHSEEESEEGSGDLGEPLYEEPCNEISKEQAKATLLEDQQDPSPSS
EML4-ALK (Homo sapiens), sequence (Q9UM73 19-1620 limits assumed): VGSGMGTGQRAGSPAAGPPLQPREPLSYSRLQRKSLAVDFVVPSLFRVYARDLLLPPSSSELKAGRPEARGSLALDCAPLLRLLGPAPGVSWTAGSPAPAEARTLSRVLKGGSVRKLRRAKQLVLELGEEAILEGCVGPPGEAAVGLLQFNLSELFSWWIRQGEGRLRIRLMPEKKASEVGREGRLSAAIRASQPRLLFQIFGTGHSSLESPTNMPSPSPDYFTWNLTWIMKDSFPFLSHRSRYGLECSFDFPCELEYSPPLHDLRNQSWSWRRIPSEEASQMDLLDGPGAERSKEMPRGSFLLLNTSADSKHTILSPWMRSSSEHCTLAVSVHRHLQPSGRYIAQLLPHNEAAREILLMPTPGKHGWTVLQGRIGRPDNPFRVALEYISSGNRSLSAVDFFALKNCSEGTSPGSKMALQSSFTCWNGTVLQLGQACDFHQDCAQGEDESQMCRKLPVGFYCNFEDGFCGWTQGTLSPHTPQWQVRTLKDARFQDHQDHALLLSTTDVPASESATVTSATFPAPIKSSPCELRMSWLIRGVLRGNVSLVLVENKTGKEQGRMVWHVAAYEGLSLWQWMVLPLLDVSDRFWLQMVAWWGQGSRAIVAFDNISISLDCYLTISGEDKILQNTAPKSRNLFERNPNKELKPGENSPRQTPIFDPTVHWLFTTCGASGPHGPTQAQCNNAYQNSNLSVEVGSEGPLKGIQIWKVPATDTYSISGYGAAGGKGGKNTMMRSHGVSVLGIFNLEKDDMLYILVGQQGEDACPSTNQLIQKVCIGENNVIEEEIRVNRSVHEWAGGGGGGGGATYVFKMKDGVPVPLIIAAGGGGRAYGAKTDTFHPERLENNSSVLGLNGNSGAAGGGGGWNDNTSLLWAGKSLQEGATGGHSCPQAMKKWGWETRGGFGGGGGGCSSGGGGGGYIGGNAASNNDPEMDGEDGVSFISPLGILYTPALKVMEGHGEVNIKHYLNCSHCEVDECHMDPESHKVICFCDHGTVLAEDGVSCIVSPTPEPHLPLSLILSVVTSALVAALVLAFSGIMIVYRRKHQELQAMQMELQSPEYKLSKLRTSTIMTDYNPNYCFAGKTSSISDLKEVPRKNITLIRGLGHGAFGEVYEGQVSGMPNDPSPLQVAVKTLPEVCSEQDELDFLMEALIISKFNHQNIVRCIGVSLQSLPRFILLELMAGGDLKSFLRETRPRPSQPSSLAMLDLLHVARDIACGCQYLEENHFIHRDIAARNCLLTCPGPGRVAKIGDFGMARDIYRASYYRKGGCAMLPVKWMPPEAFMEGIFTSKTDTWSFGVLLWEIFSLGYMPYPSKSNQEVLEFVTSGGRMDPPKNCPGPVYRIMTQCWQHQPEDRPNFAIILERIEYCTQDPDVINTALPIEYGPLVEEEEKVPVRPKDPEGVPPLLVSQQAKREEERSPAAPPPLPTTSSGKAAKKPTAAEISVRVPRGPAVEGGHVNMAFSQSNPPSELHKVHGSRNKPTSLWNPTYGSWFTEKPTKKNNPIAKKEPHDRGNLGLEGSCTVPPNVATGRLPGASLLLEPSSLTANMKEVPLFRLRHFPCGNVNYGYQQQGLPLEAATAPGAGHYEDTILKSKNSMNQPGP
Serine/threonine-protein kinase SIK2 (Homo sapiens), sequence (Q9H0K1 whole entry, looked up): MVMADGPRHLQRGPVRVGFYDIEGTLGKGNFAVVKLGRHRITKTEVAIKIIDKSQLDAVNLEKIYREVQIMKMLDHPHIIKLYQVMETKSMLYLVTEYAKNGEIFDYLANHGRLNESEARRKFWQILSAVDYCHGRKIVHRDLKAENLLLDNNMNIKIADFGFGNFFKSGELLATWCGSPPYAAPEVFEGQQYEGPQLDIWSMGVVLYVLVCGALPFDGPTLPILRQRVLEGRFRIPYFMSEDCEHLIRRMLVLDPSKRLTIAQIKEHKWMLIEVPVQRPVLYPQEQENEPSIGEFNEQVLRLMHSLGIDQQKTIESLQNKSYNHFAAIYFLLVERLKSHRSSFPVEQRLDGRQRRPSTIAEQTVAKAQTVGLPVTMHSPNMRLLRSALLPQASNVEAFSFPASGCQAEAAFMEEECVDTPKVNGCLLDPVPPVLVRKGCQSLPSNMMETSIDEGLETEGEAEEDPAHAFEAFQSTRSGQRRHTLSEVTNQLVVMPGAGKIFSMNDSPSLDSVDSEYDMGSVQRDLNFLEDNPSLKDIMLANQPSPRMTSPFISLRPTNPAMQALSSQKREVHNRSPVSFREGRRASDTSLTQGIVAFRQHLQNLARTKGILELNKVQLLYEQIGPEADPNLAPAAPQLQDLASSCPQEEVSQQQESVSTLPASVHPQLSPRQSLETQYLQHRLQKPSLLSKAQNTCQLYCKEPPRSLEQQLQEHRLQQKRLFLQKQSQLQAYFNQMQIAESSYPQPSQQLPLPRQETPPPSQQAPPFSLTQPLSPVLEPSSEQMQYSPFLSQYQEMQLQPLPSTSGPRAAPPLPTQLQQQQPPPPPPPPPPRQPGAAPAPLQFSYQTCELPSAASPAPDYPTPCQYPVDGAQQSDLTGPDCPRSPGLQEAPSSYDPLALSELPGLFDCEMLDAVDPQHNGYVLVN
Serine/threonine-protein kinase 10 (Homo sapiens), sequence (O94804 whole entry, looked up): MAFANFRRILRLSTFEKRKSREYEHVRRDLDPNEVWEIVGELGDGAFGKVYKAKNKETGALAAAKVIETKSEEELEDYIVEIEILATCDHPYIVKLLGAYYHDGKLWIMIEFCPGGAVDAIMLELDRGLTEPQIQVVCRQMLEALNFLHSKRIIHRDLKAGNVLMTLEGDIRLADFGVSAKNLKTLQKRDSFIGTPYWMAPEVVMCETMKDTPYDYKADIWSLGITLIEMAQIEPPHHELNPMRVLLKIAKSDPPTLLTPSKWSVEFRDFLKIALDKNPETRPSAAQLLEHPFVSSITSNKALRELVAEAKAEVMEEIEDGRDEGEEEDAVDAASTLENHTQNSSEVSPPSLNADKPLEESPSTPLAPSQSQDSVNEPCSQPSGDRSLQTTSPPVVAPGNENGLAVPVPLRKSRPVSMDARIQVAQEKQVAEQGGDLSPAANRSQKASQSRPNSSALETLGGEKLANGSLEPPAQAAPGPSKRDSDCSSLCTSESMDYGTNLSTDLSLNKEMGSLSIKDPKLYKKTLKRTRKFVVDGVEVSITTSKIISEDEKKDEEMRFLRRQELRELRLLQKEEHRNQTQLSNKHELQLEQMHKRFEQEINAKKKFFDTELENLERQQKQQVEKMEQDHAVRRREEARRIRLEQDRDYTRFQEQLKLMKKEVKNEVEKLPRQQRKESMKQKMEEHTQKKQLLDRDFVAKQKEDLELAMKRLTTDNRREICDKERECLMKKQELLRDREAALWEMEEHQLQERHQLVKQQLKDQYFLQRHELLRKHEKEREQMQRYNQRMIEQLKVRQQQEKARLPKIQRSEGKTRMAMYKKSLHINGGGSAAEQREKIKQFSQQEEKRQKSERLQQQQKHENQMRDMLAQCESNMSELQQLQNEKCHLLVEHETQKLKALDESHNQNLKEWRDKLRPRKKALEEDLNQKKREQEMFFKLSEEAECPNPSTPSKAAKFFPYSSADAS

**Q.** With `COc1cc(N(C)c2ccnc3ccc(C(F)(F)F)cc23)cc(OC)c1OC` as the compound, how does the % binding [1] read?
**A.** Its % binding is 98%.

**Q.** What does the source list for `C=CC(=O)Nc1cccc(C(=O)Nc2ccc(Nc3cc(-c4[nH]c(SC)nc4C)ccn3)cc2)c1`?
**A.** % of control (EML4-ALK (Homo sapiens); at 1 µM): 91%; % of control (EML4-ALK (Homo sapiens); at 5 µM): 89%; % of control [2]: 80%; % of control ([3]; at 1 µM): 104%; % of control ([3]; at 5 µM): 106%

**Q.** `Nc1cnc(N2CCc3cc(S(=O)(=O)Nc4c(F)cc(Cl)cc4F)cc(N4CCCC4=O)c32)nc1` [TP-020n] was tested. Which % of control [4] did it give?
**A.** Its % of control is 46%.

**Q.** For `CN(C)CCCOc1ccc(-c2cc(NCCCn3cccn3)nc(S(C)(=O)=O)n2)cc1`, which dTM [5] is on record?
**A.** Its dTM is < 2 K.

**Q.** Which % of inhibition [6] does the source give for `CC[C@@H]1[C@H](F)C(=O)N[C@@H]1COc1nccc2cc(C(N)=O)c(OC)cc12` [ZIMLOVISERTIB] here?
**A.** Its % of inhibition is -10.5%.

**Q.** Which % of control [7] does the source give for `O[C@H]1CC[C@H](Nc2ncc3nc(Nc4c(F)cc(F)cc4F)n([C@H]4CCOC4)c3n2)CC1` here?
**A.** Its % of control is 100%.

**Q.** `CN(C)C/C=C/C(=O)Nc1ccc(C(=O)N2CCCC(Nc3ncc(Cl)c(-c4c[nH]c5ccccc45)n3)C2)cc1` (stereo unspecified) was tested. Which % of control [8] did it give?
**A.** Its % of control is 90%.
